Measurements reported in patent US20040029816A1, “Hepatoprotective activity of 10-O-P-hydroxybenzoyiaucubin” (priority 2002, published 2004).

Key:
[1] = tested on: CCl4 induced hepatic injury; assay: Hepatoprotective activity (in vivo) against CCl4 induced hepatic injury in rats
From the text: Treatment of experimental animals with the 033 and 033(1) against CCU induced liver damage reduced the elevated levels of serum GPT, GOT, ALP, bilirubin, TG and hepatic lipid peroxidation and increased the GSH level.

[2] = tested on: GalN induced hepatic injury; assay: Hepatoprotective activity (in vivo) against galactosamine (GalN) induced hepatic injury in rats
From the text: The hepatoprotective activity observed with 033 and 033(1) was 59.58 & 44.97, 56.62 & 44.05, 54.28 & 47.66, 57.71 & 66.66, 57.89 & 49.33 percent in serum GPT, GOT, Bilirubin, ALP, and TG respectively and 67.51 & 48.34, 66.56 & 55.13 percent in hepatic lipid peroxidation (LP) and GSH respectively. The same with silymarin was 57.38, 55.40, 60.00, 53.54,46.17, 69.59, 67.18 percent respectively (Table-2). [table]

[3] = liver homogenate, rats, fed p.o. at 48 h, 24 h, 2 h before and 6 h after CCl4 (1 ml/kg, p.o.), 033 400 mg/kg, 033 (1) and silymarin 50 mg/kg, mean of six animals
[4] = rats, fed p.o. at 48 h, 24 h, 2 h before and 6 h after CCl4 (1 ml/kg, p.o.), 033 400 mg/kg, 033 (1) and silymarin 50 mg/kg, mean of six animals
[5] = rats, fed p.o. at 48 h, 24 h, 2 h before and 6 h after CCl4 (1 ml/kg, p.o.), 033 400 mg/kg, 033 (1) and silymarin 50 mg/kg, mean of six animals, listed as 033(1)
[6] = liver, rats, fed p.o. at 48 h, 24 h, 2 h before and 6 h after GalN (300 mg/kg, s.c.), 033 400 mg/kg, 033 (1) and silymarin 50 mg/kg, mean of six animals
[7] = rats, fed p.o. at 48 h, 24 h, 2 h before and 6 h after GalN (300 mg/kg, s.c.), 033 400 mg/kg, 033 (1) and silymarin 50 mg/kg, mean of six animals

O=C(OCC1=C[C@@H](O)[C@@H]2C=CO[C@@H](O[C@@H]3O[C@H](CO)[C@@H](O)[C@H](O)[C@H]3O)[C@H]12)c1ccc(O)cc1 [033 (1), 10-O-p-hydroxybenzoylaucubin]
hepatoprotective activity (in words) ([1]; experimentally induced hepatic damage with CCl4 in rats): marked hepatoprotective activity
Hepatoprotective activity, hepatic Glutathione (GSH) [1, 3]: 38.12%
Hepatoprotective activity, hepatic Lipid peroxidation (LP) [1, 3]: 41.48%
Hepatoprotective activity, serum ALP (table head: Al.F) [1, 4]: 60.2%
Hepatoprotective activity, serum Bilirubin (table head: Bihrubin (mg %)) [1, 4]: 71.79%
Hepatoprotective activity, serum GOT (Units) [1, 4]: 57.43%
Hepatoprotective activity, serum GPT (table head: OPT (Units)) [1, 4]: 59.52%
Hepatoprotective activity, serum Triglycerides (TG) [1, 4]: 38.53%
Hepatoprotective activity, serum ALP (table head: Al.F) [1, 5]: 60.17%
Hepatoprotective activity, serum GOT (Units) [1, 5]: 57.42%
hepatoprotective activity (in words) ([2]; experimentally induced hepatic damage with galactosamine (GalN) in rats): marked hepatoprotective activity
Hepatoprotective activity, hepatic Glutathione (GSH) [2, 6]: 55.13%
Hepatoprotective activity, hepatic Lipid peroxidation (LP) [2, 6]: 48.34%
Hepatoprotective activity, serum ALP [2, 7]: 66.66%
Hepatoprotective activity, serum Bilirubin (mg %) [2, 7]: 47.66%
Hepatoprotective activity, serum GOT (Units) [2, 7]: 44.05%
Hepatoprotective activity, serum GPT (Units) [2, 7]: 44.97%
Hepatoprotective activity, serum Triglycerides (mg %) [2, 7]: 49.33%
